Measurements from patent publication US8173694B2, “Therapeutic agent” (Pentraxin Therapeutics Limited, priority 2001, dated 2012).

Assays:
[1] = biological target: T1, isolated pure human CRP (Homo sapiens, UniProt P02741); experiment: Size exclusion chromatography of isolated pure CRP mixed with drug; type: binding
T1 sequence (P02741 19-224): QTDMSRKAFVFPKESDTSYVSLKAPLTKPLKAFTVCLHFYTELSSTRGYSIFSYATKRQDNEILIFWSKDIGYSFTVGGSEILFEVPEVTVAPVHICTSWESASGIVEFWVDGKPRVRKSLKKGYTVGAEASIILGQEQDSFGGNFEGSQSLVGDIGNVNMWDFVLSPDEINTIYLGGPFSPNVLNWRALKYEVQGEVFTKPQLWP
Experimental: C-reactive protein (CRP) is a pentraxin closely related to SAP. Samples of isolated pure human SAP or CRP were mixed with (R)-1-[6-(R)-2-Carboxy-pyrrolidin-1-yl]-6-oxo-hexanoyl]pyrrolidine-2-carboxylic acid at the molar ratios shown, with respect to pentraxin protomer, in physiological ionic strength Tris buffered saline pH 8.0, and analysed by size exclusion chromatography precisely as described previously (14). The mixtures and the column eluants contained either no calcium ions or 2 mM calcium, and the concentrations of drug appropriate to maintain the molar ratios indicated above. In the absence of a specific ligand to which it can bind, purified human SAP is insoluble in the presence of calcium and elutes as high molecular weight aggregates in the void volume of the column (14). However in the absence of calcium and ligand, isolated SAP alone forms stable decamers, providing an excellent marker for the elution volume of this molecular assembly (14). Human CRP is a stable pentamer either in the presence or absence of calcium and thus provides a robust marker for the elution position of that molecular form (14).

[2] = test system: SAP; experiment: SAP binding to experimentally induced amyloid deposits in mice; type: in vivo, mouse; settings: compared with 1-(3-Mercapto-2-methyl-1-oxopropyl)-D-proline
Description: The potency of (R)-1-[6-(R)-2-Carboxy-pyrrolidin-1-yl]-6-oxo-hexanoyl]pyrrolidine-2-carboxylic acid in vivo was initially considered to be consistent with its lower IC50 value in vitro. However the decameric assembly of pentameric SAP molecules, induced by the cross linking capacity of the palindromic drug, is an abnormal molecular configuration which, according to the present invention, will be recognised in vivo and promptly cleared from the circulation. This action of the drug, leading to massive depletion of SAP from the plasma, makes a critical contribution to removal of SAP from the amyloid deposits because the SAP in amyloid is derived from, and in equilibrium with, the plasma SAP pool.

[3] = biological target: T2, plasma SAP (Homo sapiens, UniProt P02743); experiment: Intravenous infusion for 48 h in patients: plasma SAP by electroimmunoassay; type: in vivo
T2 construct: from tissue; host or cells: plasma of patients in vivo
T2 sequence (P02743 20-223): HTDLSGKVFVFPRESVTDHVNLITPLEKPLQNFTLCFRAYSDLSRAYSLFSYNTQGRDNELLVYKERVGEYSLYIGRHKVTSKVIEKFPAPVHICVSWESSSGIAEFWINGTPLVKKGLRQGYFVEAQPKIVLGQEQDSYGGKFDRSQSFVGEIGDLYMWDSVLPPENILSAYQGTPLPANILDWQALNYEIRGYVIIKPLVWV
Experimental: Patients with different forms of systemic amyloidosis, and with varying amyloid loads received the doses of the drug shown for a period of 48 h. Circulating SAP values were measured by electroimmunoassay (24) in samples taken during and after the infusion, at the times shown. Each line represents a different individual patient.
(R)-1-[6-(R)-2-Carboxy-pyrrolidin-1-yl]-6-oxo-hexanoyl]pyrrolidine-2-carboxylic acid was administered for 48 h by intravenous infusion to 8 patients with systemic amyloidosis (7 with AL and one with AA type), one patient with minor localised AL amyloidosis, and one who is a carrier of the amyloidogenic Ala60 transthyretin variant but has no clinical amyloidosis. […] In initial studies with slow continuous infusion, the SAP concentration started to fall when about 2 mg of (R)-1-[6-(R)-2-Carboxy-pyrrolidin-1-yl]-6-oxo-hexanoyl]pyrrolidine-2-carboxylic acid had been given, and in subsequent studies this amount was therefore injected as a bolus at the outset, followed by infusion at the rates shown (FIG. 4). […] However, after drug infusion had ceased, the plasma SAP concentration rapidly returned to normal in the individuals with little or no amyloid, whereas this recovery was markedly delayed in subjects with significant amyloidosis. In the one patient with a very heavy amyloid load, the plasma SAP concentration remained below 25% of its initial value 20 days after the infusion. Most of the daily production of SAP, which is about 50-100 mg per day (15), was evidently distributing into the amyloid deposits before becoming available to replete the plasma pool. This is very strong indirect evidence that even such a brief infusion of (R)-1-[6-(R)-2-Carboxy-pyrrolidin-1-yl]-6-oxo-hexanoyl]pyrrolidine-2-carboxylic acid had substantially depleted the amyloid-associated SAP.
Two individual patients with systemic amyloidosis and moderate amyloid loads received (R)-1-[6-(R)-2-Carboxy-pyrrolidin-1-yl]-6-oxo-hexanoyl]pyrrolidine-2-carboxylic acid (desapin) by intravenous infusion at the steady rates shown. Circulating SAP concentrations started to fall almost immediately and had halved when the concentrations of drug and SAP protomer were equimolar.
The potency of (R)-1-[6-(R)-2-Carboxy-pyrrolidin-1-yl]-6-oxo-hexanoyl]pyrrolidine-2-carboxylic acid in depleting circulating SAP was remarkable, with SAP values falling when the concentration ratio of drug to SAP pentamer in the plasma approached equimolar (FIG. 7). […] This is evidently the species recognised as abnormal and promptly cleared by the liver.

[4] = drug:protein 1:1, calcium present
[5] = drug:protein 10:1, calcium present

Elution volume [1, 4]: 12.58 mL | Molecular assembly [1, 4]: Pentamer | Elution volume [1, 5]: 11.96 mL | Molecular assembly [1, 5]: Pentamer | SAP clearance from plasma by the end of the infusion ([3]; 0.25 mg/kg/day and all higher rates up to 6 mg/kg/day): almost completely cleared | Plasma SAP concentration, of its initial value ([3]; 20 days after the infusion, one patient with very heavy amyloid load): below 25% | SAP depletion ([3]; infusion rate 0.1 mg/kg/day): slower and less complete | Amount of drug given when SAP concentration started to fall ([3]; slow continuous intravenous infusion): about 2 mg | Circulating SAP concentration when drug and SAP protomer concentrations were equimolar ([3]; two patients, 48 h intravenous infusion): halved
SMILES: O=C(O)[C@H]1CCCN1C(=O)CCCCC(=O)N1CCC[C@@H]1C(=O)O [(R)-1-[6-(R)-2-Carboxy-pyrrolidin-1-yl]-6-oxo-hexanoyl]pyrrolidine-2-carboxylic acid]
Activity in inhibiting SAP binding and dissociating SAP from deposits, relative to lead compound [2]: more active | Depletion of circulating SAP ([3]; 48 h intravenous infusion, all 10 subjects): dramatic, rapid, and consistent depletion
